“Also recorded” adds a separate entry of the source. Read-outs that look alike come from different tables or passages of the source.
What was measured:
[1] = system: bFGF; conditions: cited from earlier work
[2] = system: FGFR2 (bek); assay: Tyrosine phosphorylation of FGFR2 in mutant (HSPG-deficient) CHO-pgsD-677 cells; assay type: cell-based, human
Procedure: (§1) Cells were lysed and the receptor was immunoprecipitated with anti-FGFR2 antibodies. Samples were then analyzed by SDS-PAGE, transferred to nitrocellulose membranes, and tyrosine-phosphorylated proteins were detected by immunoblotting with anti-phosphotyrosine antibodies.
(§2) Wild-type CHO cells (CHO-K1), as well as heparin sulfate-deficient mutant cells (CHO-pgsD-677) which were kindly provided by Prof. J. Esko (Esko, 1991), were cultured in F-12 medium containing 7.5% FBS, 1% Ampicillin/Streptomycin and 1% glutamine. Both CHO cell lines were co-transfected with the wild-type human FGFR2 (bek) DNA in the expression vector pMJ30 (Dionne et al., 1990) (40 μg/10 cm dish) and the pSVneo resistant gene (0.5 mg/10 cm dish), using the calcium phosphate method (Chen and Okayama, 1987). Geneticin (1 mg/ml) resistant clones were screened for expression of the receptor by immunoprecipitation and immunoblotting analysis using anti-FGFR2 antibodies.
(§3) Wild-type and mutant CHO cells were starved overnight in F-12 medium containing 0.5% FBS, and stimulated with either 0.1 nM aFGF, 50 nM heparin, or both, for 5 min at 37° C. Cells were lysed, immunoprecipitated with anti-FGFR2 antibodies and analyzed by immunoblotting with anti-phosphotyrosine (anti-PTyr) antibodies.

[3] = biological target: T1, aFGF (Homo sapiens, UniProt P05230); assay: Isothermal titration calorimetry, binding to aFGF; conditions: ITC
T1 construct: made in house; host or cells: E. coli

[4] = system: FGFR2 (bek); assay: Tyrosine phosphorylation of FGFR2 in wild-type CHO-K1 cells; assay type: cell-based, human; conditions: excess of sucrose octasulfate (0.5, 50 or 500 μM) with aFGF and heparin
Procedure: as §1, §2, §3

[5] = system: tumor cells; conditions: Wellstein et al, 1991; cited from earlier work
[6] = system: K-FGF; conditions: cited from earlier work
[7] = system: gastric mucosa; conditions: cited from earlier work
[8] = system: EGF; conditions: cited from earlier work
[9] = system: heparin binding proteins; conditions: cited from earlier work
[10] = system: VEGF; conditions: cell culture; Kendall & Thomas, 1993; cited from earlier work

T1 sequence (P05230 whole entry): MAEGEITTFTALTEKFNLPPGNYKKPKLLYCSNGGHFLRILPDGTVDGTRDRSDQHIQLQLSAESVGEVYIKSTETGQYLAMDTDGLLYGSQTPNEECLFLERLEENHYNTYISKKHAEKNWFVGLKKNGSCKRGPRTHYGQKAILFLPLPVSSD

## O=S(=O)(O)OC[C@H]1O[C@@](COS(=O)(=O)O)(O[C@H]2O[C@H](COS(=O)(=O)O)[C@@H](OS(=O)(=O)O)[C@H](OS(=O)(=O)O)[C@H]2OS(=O)(=O)O)[C@@H](OS(=O)(=O)O)[C@@H]1OS(=O)(=O)O [sucrose octasulfate]
[1]
  protection of bFGF from acid degradation: protect the biologic activity of bFGF against acid degradation
[2]; excess of sucrose octasulfate (0.5, 50 or 500 μM) with 0.1 nM aFGF and 50 nM heparin
  effect on aFGF/heparin-induced receptor activation, mutant CHO cells: inhibitory; also recorded: can be inhibited
[2]; statement of Section 5.1 referring to Section 7.2.8
  aFGF/heparin-induced dimerization and activation of FGFR: effectively inhibits aFGF/heparin-induced dimerization and activation of FGFR
[2]; sucrose octasulfate plus aFGF, no heparin
  activation of FGFR by aFGF with sucrose octasulfate in place of heparin, mutant CHO cells: does not enable aFGF to activate FGFR in the mutant (HSPG-deficient) CHO cells
[3]; heparins: means ± SD of two experiments
  AH of aFGF binding to heparin / heparin analog: -5.8 ± 1.2 kcal mol^-1
[3]; single class of binding sites, heparins: means ± SD of two experiments, read-out: KD of aFGF binding to heparin / heparin analog
  Kd: 3.4 ± 1.34 µM
[3]; KD of aFGF binding to sucrose octasulfate
  Kd: 3.4 µM
[4]
  effect on aFGF/heparin-induced receptor activation, CHO cells that express HSPG: inhibitory

## Pentosan polysulfate
[5]
  growth of tumor cells in vitro: selective inhibition of growth of tumor cells in vitro
[6]; Wellstein et al., 1991
  K-FGF-induced growth: inhibited the K-FGF- induced growth
[6]
  FGF-induced angiogenesis and tumor growth: inhibited the FGF-induced angiogenesis and tumor growth

## sucrose octakis (hydrogen sulfate) aluminum complex [sucralfate]
[1]
  protection of bFGF from acid degradation: protects bFGF from degradation by acid
[1]; compared with heparin
  affinity to bFGF: higher affinity binding to bFGF than heparin
[7]; in vivo
  ulcer healing / wound healing: accelerates ulcer healing without reducing gastric acid; also recorded: elevates the level of available endogenous bFGF in the ulcer bed and stimulates angiogenesis and wound healing
[7]; through stimulation of gastric mucosal EGF and PDGF receptors
  epithelial proliferation: enhances epithelial proliferation
[8]
  EGF binding: binds EGF in a pH-dependent manner

## Cc1ccc(C(=O)Nc2ccc(S(=O)(=O)O)c3cc(S(=O)(=O)O)cc(S(=O)(=O)O)c23)cc1NC(=O)c1cccc(NC(=O)Nc2cccc(C(=O)Nc3cc(C(=O)Nc4ccc(S(=O)(=O)O)c5cc(S(=O)(=O)O)cc(S(=O)(=O)O)c45)ccc3C)c2)c1 [Suramin]
[9]
  effect on heparin binding proteins: inducing microagglutination of the growth factor; also recorded: inhibit a variety of heparin binding proteins

B1: soluble Flt-1: soluble Flt-1, one of the receptors for VEGF (protein, UniProt P17948 27-758, looked up)
extracellular domain: SKLKDPELSLKGTQHIMQAGQTLHLQCRGEAAHKWSLPEMVSKESERLSITKSACGRNGKQFCSTLTLNTAQANHTGFYSCKYLAVPTSKKKETESAIYIFISDTGRPFVEMYSEIPEIIHMTEGRELVIPCRVTSPNITVTLKKFPLDTLIPDGKRIIWDSRKGFIISNATYKEIGLLTCEATVNGHLYKTNYLTHRQTNTIIDVQISTPRPVKLLRGHTLVLNCTATTPLNTRVQMTWSYPDEKNKRASVRRRIDQSNSHANIFYSVLTIDKMQNKDKGLYTCRVRSGPSFKSVNTSVHIYDKAFITVKHRKQQVLETVAGKRSYRLSMKVKAFPSPEVVWLKDGLPATEKSARYLTRGYSLIIKDVTEEDAGNYTILLSIKQSNVFKNLTATLIVNVKPQIYEKAVSSFPDPALYPLGSRQILTCTAYGIPQPTIKWFWHPCNHNHSEARCDFCSNNEESFILDADSNMGNRIESITQRMAIIEGKNKMASTLVVADSRISGIYICIASNKVGTVGRNISFYITDVPNGFHVNLEKMPTEGEDLKLSCTVNKFLYRDVTWILLRTVNNRTMHYSISKQKMAITKEHSITLNLTIMNVSLQDSGTYACRARNVYTGEEILQKKEITIRDQEAPYLLRNLSDHTVAISSSTTLDCHANGVPEPQITWFKNNHKIQQEPGIILGPGSSTLFIERVTEEDEGVYHCKATNQKGSVESSAYLTVQGTSDKSNLE
modifications: extracellular domain
notes: soluble Flt-1, one of the receptors for VEGF
[10]
  VEGF activity: can bind and inhibit the activity of VEGF in cell culture
